The values that follow come from patent US7851474B2, “Dipiperazinyl ketones and related analogues” (Neurogen Corporation, priority 2005, dated 2010).

Where two headings read alike, the source gives them in different places.

For this assay, the target named is T1, chimeric human H3 receptor (Homo sapiens, UniProt Q9Y5N1, E19D).
T1 construct: made in house; host or cells: Sf9 insect cells (baculovirus infection); P2 membrane preparation
Briefly: Chimeric human H3 receptor GTP binding assay (agonist-stimulated GTP-gamma35S binding, Example 7). It counts as biochemical. The essentials:
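IC50 values come from non-linear regression of dose-response curves of filter-bound GTP-gamma^35S, counted by scintillation. Membranes were from infected Sf9 cells carrying receptor plus G-protein subunits, 35 μg/tube, with 10 μM GDP present.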
A general note: GTPγS is a poorly hydrolysed GTP analogue; its binding reports G protein activation.

[1] abbreviates: assay of Example 7, symbol * in column headed Ki of Table II, read-out: Ki.
Where [2] appears, read: "*" in Ki of Table II, assay of Example 7, read-out: Ki.
[3] abbreviates: Table II, "*" in Ki, assay of Example 7, read-out: Ki.
Setting [4] is: Table II "Ki", symbol "*": Ki in the assay of Example 7, read-out: Ki.
The mark [5] stands for this setting: Table II, assay of Example 7, "*" in Ki, read-out: Ki.
The mark [6] stands for this setting: assay of Example 7, "*" in Ki of Table II, read-out: Ki.

T1 sequence (Q9Y5N1 with tags, fused parts or gaps E19D): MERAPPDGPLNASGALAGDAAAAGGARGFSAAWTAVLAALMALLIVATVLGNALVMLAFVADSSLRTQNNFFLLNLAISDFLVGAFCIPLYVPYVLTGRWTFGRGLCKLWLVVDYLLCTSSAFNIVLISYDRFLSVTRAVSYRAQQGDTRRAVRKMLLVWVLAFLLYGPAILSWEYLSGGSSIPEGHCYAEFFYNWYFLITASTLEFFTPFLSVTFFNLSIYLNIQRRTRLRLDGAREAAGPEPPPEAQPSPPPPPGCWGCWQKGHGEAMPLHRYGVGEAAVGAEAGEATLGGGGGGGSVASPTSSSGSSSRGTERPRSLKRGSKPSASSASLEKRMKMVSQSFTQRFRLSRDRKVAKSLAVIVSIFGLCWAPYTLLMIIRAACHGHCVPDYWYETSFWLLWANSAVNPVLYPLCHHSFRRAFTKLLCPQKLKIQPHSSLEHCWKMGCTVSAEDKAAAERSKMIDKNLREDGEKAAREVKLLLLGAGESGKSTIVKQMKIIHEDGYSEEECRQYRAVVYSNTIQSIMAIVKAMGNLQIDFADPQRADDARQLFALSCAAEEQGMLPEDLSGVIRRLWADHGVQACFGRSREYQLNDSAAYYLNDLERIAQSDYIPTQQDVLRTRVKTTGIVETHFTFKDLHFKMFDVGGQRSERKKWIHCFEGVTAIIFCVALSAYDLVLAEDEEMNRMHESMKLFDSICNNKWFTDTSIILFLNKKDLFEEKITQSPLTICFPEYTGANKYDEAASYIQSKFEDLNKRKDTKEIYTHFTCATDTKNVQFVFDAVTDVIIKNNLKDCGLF

By Ki is commonly meant a measure of affinity in units of concentration, obtained from inhibition or displacement. Regarding `CC(=O)c1ccc(N2CCN(CC(=O)N3CCN(C4CCC4)CC3)CC2)c2ccccc12` [Compound 310, 1-(4-{4-[2-(4-cyclobutylpiperazin-1-yl)-2-oxoethyl]piperazin-1-yl}-1-naphthyl)ethanone], under setting [1], the inhibitory constant (Ki) is less than 1000 nM.
For `CCC(C)N1CCN(C(=O)CN2CCC(N3CCC(C)CC3)CC2)CC1` (centres unmarked) [Compound 448, 1′-[2-(4-sec-butylpiperazin-1-yl)-2-oxoethyl]-4-methyl-1,4-bipiperidine], under setting [2], the inhibition constant (Ki) was less than 1000 nM.
Same read-out and setting: the same measure for `O=C(CN1CCC(N2CCCCCC2)CC1)N1CCN(C2CCCCC2)CC1` [Compound 480, 1-{1-[2-(4-cyclohexylpiperazin-1-yl)-2-oxoethyl]piperidin-4-yl}azepane]: less than 1000 nM.
For the compound `O=C(CN1CCN(c2cccc(C(=O)N3CCCCC3)c2)CC1)N1CCN(C2CCC2)CC1` [Compound 585, 1-cyclobutyl-4-({4-[3-(piperidin-1-ylcarbonyl)phenyl]piperazin-1-yl}acetyl)piperazine], the Ki under setting [3] was less than 1000 nM.
On the same count and under the same terms, the same measure for `CCS(=O)(=O)c1ccc(N2CCN(CC(=O)N3CCN(C4CCC4)CC3)CC2)cc1` [Compound 597, 1-cyclobutyl-4-({4-[4-(ethylsulfonyl)phenyl]piperazin-1-yl}acetyl)piperazine]: less than 1000 nM.
As to `O=C(CN1CCN(c2cccc(-c3ccccc3)c2)CC1)N1CCN(C2CCC2)CC1` [Compound 493, 1-biphenyl-3-yl-4-[2-(4-cyclobutylpiperazin-1-yl)-2-oxoethyl]piperazine], the Ki under setting [2] is less than 1000 nM.
As to `CCC(C)N1CCN(C(=O)CN2CCN(c3ccc(OC)c(OC)c3)CC2)CC1` (centres unmarked) [Compound 870, 1-sec-butyl-4-{[4-(3,4-dimethoxyphenyl)piperazin-1-yl]acetyl}piperazine], under setting [4], the Ki was less than 1000 nM.
For the compound `COc1cc(N2CCN(CC(=O)N3CCN(C(C)C)CC3)CC2)ccc1Cl` [Compound 347, 1-(4-chloro-3-methoxyphenyl)-4-[2-(4-isopropylpiperazin-1-yl)-2-oxoethyl]piperazine], the inhibitory constant (Ki) under setting [1] was less than 1000 nM.
For the compound `CC1CC(C)CN(C(=O)c2ccc(N3CCN(CC(=O)N4CCN(C5CCC5)CC4)CC3)nc2)C1` (centres unmarked) [Compound 653, 1-cyclobutyl-4-[(4-{5-[(3,5-dimethylpiperidin-1-yl)carbonyl]pyridin-2-yl}piperazin-1-yl)acetyl]piperazine], the Ki under setting [3] is less than 1000 nM.
Take `CCC(C)N1CCN(C(=O)CN2CCN(c3ccc(F)cc3)CC2)CC1` (centres unmarked) [Compound 880, 1-sec-butyl-4-{[4-(4-fluorophenyl)piperazin-1-yl]acetyl}piperazine]: under setting [4], the Ki was less than 1000 nM.
Take `O=C(CN1CCN(c2cnc(-c3cccc(Cl)c3Cl)cn2)CC1)N1CCN(C2CCC2)CC1` [Compound 967, 2-{4-[2-(4-cyclobutylpiperazin-1-yl)-2-oxoethyl]piperazin-1-yl}-5-(2,3-dichlorophenyl)pyrazine]: the Ki under setting [5] is less than 1000 nM.
As to `O=C(NCC1CCCCC1)c1ccc(N2CCN(CC(=O)N3CCN(C4CCC4)CC3)CC2)nc1` [Compound 1186, 6-{4-[2-(4-cyclobutylpiperazin-1-yl)-2-oxoethyl]piperazin-1-yl}-N-(cyclohexylmethyl) nicotinamide], under setting [6], the inhibition constant (Ki) is less than 1000 nM.
Regarding `COc1cc(N2CCN(CC(=O)N3CCN(C4CCC4)CC3)CC2)ccc1C(C)=O` [Compound 318, 1-(4-{4-[2-(4-cyclobutylpiperazin-1-yl)-2-oxoethyl]piperazin-1-yl}-2-methoxyphenyl)ethanone], the Ki under setting [1] was less than 1000 nM.
As for `O=C(CN1CCN(c2ccc(-c3ccc(Cl)c(Cl)c3)nn2)CC1)N1CCN(C2CCC2)CC1` [Compound 1051, 3-{4-[2-(4-cyclobutylpiperazin-1-yl)-2-oxoethyl]piperazin-1-yl}-6-(3,4-dichlorophenyl)pyridazine], the Ki under setting [5] is less than 1000 nM.
On to `COc1ccc(N2CCN(CC(=O)N3CCN(C4CCCC4)CC3)CC2)cc1OC` [Compound 836, 1-cyclopentyl-4-{[4-(3,4-dimethoxyphenyl)piperazin-1-yl]acetyl}piperazine], for which the Ki under setting [4] is less than 1000 nM.
Turning to `CCN1CCN(C(=O)CN2CCN(c3ccc(OC)c(OC)c3)CC2)CC1` [Compound 284, 1-(3,4-dimethoxyphenyl)-4-[2-(4-ethylpiperazin-1-yl)-2-oxoethyl]piperazine], the inhibition constant Ki under setting [1] was less than 1000 nM.
Consider `CC(C)c1cccc(-c2cnc(N3CCN(CC(=O)N4CCN(C5CCC5)CC4)CC3)cn2)c1` [Compound 926, 2-{4-[2-(4-cyclobutylpiperazin-1-yl)-2-oxoethyl]piperazin-1-yl}-5-(3-isopropylphenyl)pyrazine], for which the Ki under setting [4] was less than 1000 nM.
The same measure, in the same setting: the same measure for `CC(C)N1CCN(C(=O)CN2CCN(c3ccc(C(F)(F)F)cn3)CC2)CC1` [Compound 846, 1-isopropyl-4-({4-[5-(trifluoromethyl)pyridin-2-yl]piperazin-1-yl}acetyl)piperazine]: less than 1000 nM.
Regarding `CC(=O)c1cccc(-c2ccc(N3CCN(CC(=O)N4CCN(C5CCC5)CC4)CC3)cc2)c1` [Compound 308, 1-(4′-{4-[2-(4-cyclobutylpiperazin-1-yl)-2-oxoethyl]piperazin-1-yl}biphenyl-3-yl)ethanone], the inhibition constant Ki under setting [1] is less than 1000 nM.
`O=C(CN1CCN(c2cnc(-c3cc(C(F)(F)F)ccc3Cl)cn2)CC1)N1CCN(C2CCC2)CC1` [Compound 912, 2-[2-chloro-5-(trifluoromethyl)phenyl]-5-{4-[2-(4-cyclobutylpiperazin-1-yl)-2-oxoethyl]piperazin-1-yl}pyrazine]: the Ki under setting [4] is less than 1000 nM.
Consider `CC(=O)c1ccc(N2C[C@@H](C)N(CC(=O)N3CCN(C4CCC4)CC3)C[C@@H]2C)cc1` (relative stereo) [Compound 1269, rel-1-(4-{(2R,5S)-4-[2-(4-cyclobutylpiperazin-1-yl)-2-oxoethyl]-2,5-dimethylpiperazin-1-yl}phenyl)ethanone], for which the inhibitory constant (Ki) under setting [6] was less than 1000 nM.
Take `CSc1cccc(-c2cnc(N3CCN(CC(=O)N4CCN(C5CCC5)CC4)CC3)cn2)c1` [Compound 938, 2-{4-[2-(4-cyclobutylpiperazin-1-yl)-2-oxoethyl]piperazin-1-yl}-5-[3-(methylthio)phenyl] pyrazine]: the inhibitory constant (Ki) under setting [4] was less than 1000 nM.
For `CC(C)c1cccc(-c2ccc(N3CCN(CC(=O)N4CCN(C5CCC5)CC4)CC3)nn2)c1` [Compound 1013, 3-{4-[2-(4-cyclobutylpiperazin-1-yl)-2-oxoethyl]piperazin-1-yl}-6-(3-isopropylphenyl) pyridazine], the inhibitory constant (Ki) under setting [5] is less than 1000 nM.
On to `O=C(CN1CCN(c2cnc(-c3ccc(F)c(Cl)c3)cn2)CC1)N1CCN(C2CCC2)CC1` [Compound 899, 2-(3-chloro-4-fluorophenyl)-5-{4-[2-(4-cyclobutylpiperazin-1-yl)-2-oxoethyl)piperazin-1-yl}pyrazine], for which the inhibitory constant (Ki) under setting [4] was less than 1000 nM.
For `CC(C)C(=O)c1ccc(N2CCN(CC(=O)N3CCN(C4CCC4)CC3)CC2)cc1` [Compound 313, 1-(4-{4-[2-(4-cyclobutylpiperazin-1-yl)-2-oxoethyl]piperazin-1-yl}phenyl)-2-methylpropan-1-one], the inhibition constant Ki under setting [1] was less than 1000 nM.
In the case of `O=C(CCC1CCCC1)NC1CCN(CC(=O)N2CCN(C3CCC3)CC2)CC1` [Compound 1215, N-{1-[2-(4-cyclobutylpiperazin-1-yl)-2-oxoethyl]piperidin-4-yl}-cyclopentylpropanamide], under setting [6], the inhibition constant Ki was less than 1000 nM.
Regarding `O=C(CN1CCN(c2ccc(-c3ccc4c(c3)OCCO4)cc2)CC1)N1CCN(C2CCC2)CC1` [Compound 592, 1-cyclobutyl-4-({4-[4-(2,3-dihydro-1,4-benzodioxin-6-yl)phenyl]piperazin-1-yl}acetyl)piperazine], under setting [3], the Ki is less than 1000 nM.
As to `O=C(CN1CCN(c2ccc(C(=O)N3CC[C@H]4CCCC[C@@H]4C3)cc2)CC1)N1CCN(C2CCC2)CC1` [Compound 253, (4aR,8aS)-2-(4-{4-[2-(4-cyclobutylpiperazin-1-yl)-2-oxoethyl]piperazin-1-yl}benzoyl) decahydroisoquinoline], the inhibition constant Ki under setting [1] is less than 1000 nM.
For the compound `O=C(NC1CCN(CC(=O)N2CCN(C3CCC3)CC2)C1)c1ccccc1` (centres unmarked) [Compound 1253, N-{1-[2-(4-cyclobutylpiperazin-1-yl)-2-oxoethyl]pyrrolidin-3-yl}benzamide], under setting [6], the Ki was less than 1000 nM.
Turning to `O=C(CN1CCC2(CC1)C(=O)N(Cc1ccccc1)c1cccnc12)N1CCN(C2CCC2)CC1` [Compound 492, 1′-benzyl-1-[2-(4-cyclobutylpiperazin-1-yl)-2-oxoethyl]spiro[piperidine-4,3′-pyrrolo[3,2-b]pyridin]-2′(1′H)-one], under setting [2], the inhibition constant (Ki) is less than 1000 nM.
Regarding `CCCOc1ccc(-c2ccc(N3CCN(CC(=O)N4CCN(C5CCC5)CC4)CC3)cc2)cc1` [Compound 789, 1-cyclobutyl-4-{[4-(4′-propoxybiphenyl-4-yl)piperazin-1-yl]acetyl}piperazine], under setting [4], the Ki is less than 1000 nM.
With `CC(C)(C)c1ccc(-c2ccc(N3CCN(CC(=O)N4CCN(C5CCC5)CC4)CC3)nn2)cc1` [Compound 992, 3-(4-tert-butylphenyl)-6-{4-[2-(4-cyclobutylpiperazin-1-yl)-2-oxoethyl]piperazin-1-yl}pyridazine], under setting [5], the Ki was less than 1000 nM.
Consider `CC(=O)C1(c2ccccc2)CCN(CC(=O)N2CCN(C3CCC3)CC2)CC1` [Compound 478, 1-{1-[2-(4-cyclobutylpiperazin-1-yl)-2-oxoethyl]-4-phenylpiperidin-4-yl}ethanone], for which the Ki is less than 1000 nM.
With `N#Cc1ccc(N2CCN(CC(=O)N3CCN(C4CCCCC4)CC3)CC2)cc1` [Compound 1147, 4-{4-[2-(4-cyclohexylpiperazin-1-yl)-2-oxoethyl]piperazin-1-yl}benzonitrile], the inhibition constant Ki under setting [6] is less than 1000 nM.
As to `O=C(NC1CCN(CC(=O)N2CCN(C3CCC3)CC2)C1)C1CCCCC1` (centres unmarked) [Compound 1256, N-{1-[2-(4-cyclobutylpiperazin-1-yl)-2-oxoethyl]pyrrolidin-3-yl} cyclohexanecarboxamide], the inhibition constant (Ki) under setting [6] was less than 1000 nM.
